{
  "source": "patent EP3747280A1",
  "about": "“ANTIMICROBIAL COMBINATION FOR USE IN ANIMAL FEEDS” (Lucta, S.A., priority 2019, dated 2020)",
  "key": {"[1]": {"conditions": "in animal feeds, in 20 to 40 days; higher depending on the thermal treatment of feed; cited from earlier work"}, "[2]": {"assay": "Stability test in an animal feed (GC/FID quantification of the active ingredient in fish feed over storage time)", "assay_type": "physicochemical", "excerpt": "The animal feed used was a commercial fish feed having a 52 wt% of crude protein.\nTwo 200 g samples of the commercial feed were taken for the application of each of the mixtures A and B.\nA sterile plastic bag was spread out on a laboratory tray, and 200 g of the commercial feed was deposited on it. With the help of a liquid diffuser bottle, by means of short pulsations, 3 g of the mixture A, previously diluted to 10 wt% in vegetable oil, was applied to the feed.\nThe bag was closed and shaken, and the feed additive mixture was spread by manual friction in order to distribute it homogeneously all over the feed. Then, the feed containing the mixture A was put in a plastic container. The same process was carried out with mixture B instead of mixture A.\nEach of these feed samples (200 g) containing mixture A or mixture B were divided into two and put into sterile cans (100 g of feed in each) for the different thermal treatments at room temperature (RT) and freezer temperature (FT).\nThus, an analytical method by capillary gas chromatography (high separation efficiency) and flame ionization detection (high sensitivity) ([…]) was developed. An Accelerated Solvent Extractor (ASE) extraction was made on the experimental feed samples and residual fats were eliminated from the chromatographic column using backflush.\nIn a mortar, about 5 g of the experimental feed sample were exactly weighted. 3 g of Celite 545 were added and mixed. The mixture was put in an ASE extraction cell (22 ml) and the sample was extracted with an 80%/20% hexane/acetone mixture at 100 °C and 1500 psi with 5 successive cycles (heating time 5 min, flush 40%, purge 60s) using an ASE equipment.\nAfter extraction, enough anhydrous sodium sulfate was added to the extracts to absorb remaining water and solid residues. All the liquid extract was collected in a 50 ml beaker. The sodium sulfate was cleaned from the extraction tubes with some ml of the 80% /20% hexane/acetone mixture and added to the beaker. It was made up with the 80% /20% hexane/acetone mixture and mixed thoroughly. In a 2 ml glass vial to the GC/FID about 1 ml of the extract was taken. When some precipitate appeared, it was centrifuged at 6000 rpm 5 min.\nThe same protocol shown above was performed with the experimental feed samples but adding previously 0.2 ml of the 10,000 mg/l standard to 5 g of feed in the ASE extraction cell.\nThe standards, the experimental feed sample extract and its corresponding spiked sample extract were injected in the GC/FID equipment, minimum by duplicate, using the chromatographic conditions given above. The quantity spiked to the feed sample was at least the same quantity expected in the feed sample. If the area of the spiked sample didn't double at least the area of the corresponding non spiked sample, a high concentration of standard was used to spike the sample.\nResults were calculated by standard addition method, taking into account the weight of the feed samples extracted and the standard concentrations."}, "Vibrio campbellii": {"system": "Vibrio campbellii", "assay": "MIC assay, positive control", "assay_type": "cell-based", "conditions": "positive control of the MIC test", "procedure": "It was tested whether the experimental products (i.e. comparative examples 1 and 2, and examples 1 to 3) could inactivate diverse shrimp or fish and shrimp bacterial pathogens when directly interacting under an in vitro setting.\nBacterial growth was evaluated by visual and optical density."}},
  "data": [
    {"compound": "O=CC=Cc1ccccc1", "note": "[AC, cinnamaldehyde]", "values": [
      {"measurement": "losses", "setting": "[1]", "result": "30-50%"}
    ]},
    {"compound": "C(=C\\C1OCCO1)/c1ccccc1", "note": "[EAAC, cinnamaldehyde ethylene glycol acetal]", "values": [
      {"measurement": "Amount of active agent", "setting": "[2]; feed containing AC and EAAC 50:50, FT, 7 days", "result": 269, "unit": "mg/kg"},
      {"measurement": "Amount of active agent", "setting": "[2]; feed containing AC and EAAC 50:50, FT, 14 days", "result": 220, "unit": "mg/kg"},
      {"measurement": "Amount of active agent", "setting": "[2]; feed containing AC and EAAC 50:50, FT, 21 days", "result": 265, "unit": "mg/kg"},
      {"measurement": "Amount of active agent", "setting": "[2]; feed containing AC and EAAC 50:50, FT, 28 days", "result": 238, "unit": "mg/kg"},
      {"measurement": "Amount of active agent", "setting": "[2]; feed containing AC and EAAC 50:50, FT, 35 days", "result": 197, "unit": "mg/kg"},
      {"measurement": "Amount of active agent", "setting": "[2]; feed containing AC and EAAC 50:50, FT, 42 days", "result": 224, "unit": "mg/kg"},
      {"measurement": "Amount of active agent", "setting": "[2]; feed containing AC and EAAC 50:50, RT, 7 days", "result": 288, "unit": "mg/kg"},
      {"measurement": "Amount of active agent", "setting": "[2]; feed containing AC and EAAC 50:50, RT, 14 days", "result": 236, "unit": "mg/kg"},
      {"measurement": "Amount of active agent", "setting": "[2]; feed containing AC and EAAC 50:50, RT, 21 days", "result": 258, "unit": "mg/kg"},
      {"measurement": "Amount of active agent", "setting": "[2]; feed containing AC and EAAC 50:50, RT, 28 days", "result": 237, "unit": "mg/kg"},
      {"measurement": "Amount of active agent", "setting": "[2]; feed containing AC and EAAC 50:50, RT, 35 days", "result": 191, "unit": "mg/kg"},
      {"measurement": "Amount of active agent", "setting": "[2]; feed containing AC and EAAC 50:50, RT, 42 days", "result": 229, "unit": "mg/kg"},
      {"measurement": "Amount of active agent", "setting": "[2]; feed containing a mixture of AC and EAAC, molar ratio 50:50, stored at freezer temperature (FT), 0 days", "result": 264, "unit": "mg/kg"},
      {"measurement": "Amount of active agent", "setting": "[2]; feed containing a mixture of AC and EAAC, molar ratio 50:50, stored at room temperature (RT), 0 days", "result": 264, "unit": "mg/kg"}
    ]},
    {"compound": "gentamycin", "values": [
      {"measurement": "inhibition at the expected concentration", "setting": "Vibrio campbellii", "result": 4, "unit": "mg/L"}
    ]}
  ]
}
